Measurements published in patent US8461176B2, “Enantiomerically enriched aryloazol-2-yl cyanoethylamino compounds, method of making and method of using thereof” (Merial Limited, priority 2008, dated 2013).

How the values were obtained:
Ostertagia ostertagi = assay: Method H: cattle in vivo, Ostertagia ostertagi; details: compound alone, dose as low as 3 mg/kg administered orally
Description: (§1) Method H: Screening Method to Test Activity of Compounds Against Haemonchus placei, Ostertagia ostertagi, Trichostrongylus axei, Cooperia punctata, Bunostomum phlebotomum, Oesophagostomum radiatum, Dictyocaulus viviparus, and Nematodirus helvetianus In Vivo in Cattle.
(§2) Calves were challenged intra-aurally with larvae from Bunostomum phlebotomum (500-1000 L3 per animal) on Dat −56; and orally with larvae from Oesophagostomum radiatum (1,000-2,000 infective L3 per animal) on Dat −49, Nematodirus helvetianus (3,000-6,000 infective L3 per animal) on Dat −28, Haemonchus placei (5,000-7,000 infective L3 per animal) on Dat −28, Dictyocaulus viviparus (1,000-2,000 infective L3 per animal) on Dat −28, Ostertagia ostertagi (10,000-20,000 infective L3 per animal) on Dat −21, Trichostrongylus axei (10,000-20,000 infective L3 per animal) on Dat −21, Cooperia punctata (10,000-20,000 infective L3 per animal) on Dat −28, and Cooperia oncophora (10,000-20,000 infective L3 per animal) on Dat −21. The test compound was administered alone at a dose of 3 or 6 mg/kg orally or subcutaneously or subcutaneously at a dose of 6 mg/kg in combination with ivermectin at a dose of 50 mcg/kg. […] Efficacy was calculated for each nematode species by calculating the percent efficacy as 100[(C−T)/C], where C is the mean count among untreated controls and T is the count of the treated animals. […]

Haemonchus placei = assay: Method H: cattle in vivo, Haemonchus placei
Description: as §1
(§3) Calves were challenged intra-aurally with larvae from Bunostomum phlebotomum (500-1000 L3 per animal) on Dat −56; and orally with larvae from Oesophagostomum radiatum (1,000-2,000 infective L3 per animal) on Dat −49, Nematodirus helvetianus (3,000-6,000 infective L3 per animal) on Dat −28, Haemonchus placei (5,000-7,000 infective L3 per animal) on Dat −28, Dictyocaulus viviparus (1,000-2,000 infective L3 per animal) on Dat −28, Ostertagia ostertagi (10,000-20,000 infective L3 per animal) on Dat −21, Trichostrongylus axei (10,000-20,000 infective L3 per animal) on Dat −21, Cooperia punctata (10,000-20,000 infective L3 per animal) on Dat −28, and Cooperia oncophora (10,000-20,000 infective L3 per animal) on Dat −21. The test compound was administered alone at a dose of 3 or 6 mg/kg orally or subcutaneously or subcutaneously at a dose of 6 mg/kg in combination with ivermectin at a dose of 50 mcg/kg. For oral administration, test compounds were formulated at a concentration of 10 mg/mL in DMSO/Corn oil (1:1). For subcutaneous administration, test compounds were formulated in propylene glycol/glycerol formal (60:40). All treatments were administered at Day 0. At necropsy on Day 14/15, the abomasa, small intestine and large intestine were removed and processed for parasite recovery. Nematode counts were conducted on appropriate aliquots. Efficacy was calculated for each nematode species by calculating the percent efficacy as 100[(C−T)/C], where C is the mean count among untreated controls and T is the count of the treated animals. Compound number 3.024 provided >95% efficacy against Haemonchus placei, Ostertagia ostertagi, Trichostrongylus axei, Cooperia punctata, Oesophagostomum radiatum and Nematodirus helvetianus at a dose as low as 3 mg/kg administered orally. […]

Ancylostoma tubaeforme = assay: Method G: anthelmintic efficacy against induced infections of adult nematodes in cats, Ancylostoma tubaeforme; type: in vivo; details: oral, once, doses as low as 1 mg/kg
Description: (§4) Method G: Evaluation of Anthelmintic Efficacy Against Induced Infections of Adult Nematodes in Cats
(§5) Cats were inoculated on three consecutive days with an aliquot of infective eggs of Toxocara cati (days −63, −62, −61) and Ancylostoma tubaeforme (days −28, −27, −26) from one bulk solution each. The inoculation schedule was designed such that nematodes were adult on day 0. The approximate number of infective eggs/larvae given was recorded. Fecal samples were collected between day −7 and day −1 and examined to confirm the presence of infections, and are reported as eggs/gram of feces. Each formulation was orally administered once on day 0. On day 8, the cats were humanely euthanized. The stomach, cecum, small and large intestines were removed and the total content was retained for parasite recovery. Parasites were collected and identified. Efficacy was determined for each nematode species by calculating the percent efficacy as 100[(C−T)/C], where C is the mean count among untreated controls and T is the count of the treated animals.

Oesophagostomum radiatum = assay: Method H: cattle in vivo, Oesophagostomum radiatum; details: compound alone, dose as low as 3 mg/kg administered orally
Description: as §1, §2

Nematodirus helvetianus = assay: Method H: cattle in vivo, Nematodirus helvetianus
Description: as §1, §3

Cooperia punctata = assay: Method H: cattle in vivo, Cooperia punctata; details: compound alone, dose as low as 3 mg/kg administered orally
Description: as §1, §2

Toxocara cati = assay: Method G: anthelmintic efficacy against induced infections of adult nematodes in cats, Toxocara cati; type: in vivo; details: oral, once, doses as low as 1 mg/kg
Description: as §4, §5

[1] = test system: ivermectin-resistant Ostertagia circumcincta; assay: Method I: sheep in vivo, ivermectin-resistant Ostertagia circumcincta; details: 1.5 mg/kg or 3 mg/kg orally
Description: (§6) Method I: Screening Method to Test Activity of Compounds Against Ivermectin-Resistant Haemonchus contortus, Ostertagia circumcincta, and Trichostrongylus colubriformis In Vivo in Sheep.
(§7) Sheep were challenged orally with infective 3rd stage larvae (L3) of Ostertagia circumcincta (˜3,000-6,000 infective L3 per animal) on Dat −28, Haemonchus contortus (˜2,000-4,000 infective L3 per animal) on Dat −25, and Trichostrongylus colubriformis (˜3,000-6,000 infective L3 per species per animal) on Dat −23. The inoculation schedule was designed so that nematodes were expected to be in the adult stage on Day 0. Test compounds were dissolved in a mixture of DMSO/Corn oil (1:1) at a concentration of 10 mg/mL. All treatments were administered orally once on Day 0. At sacrifice on Day 14 the abomasum, small intestine and large intestine (including cecum) were removed. Nematode counts were conducted on 10% (abomasal and small intestinal content, abomasal soak) or 20% aliquots (large intestinal content). All nematodes were speciated, or assigned to species based on location of recovery (adult females, fourth-stage larvae) for a total count per species. Efficacy was calculated as the % reduction in the mean number of worms in each test group compared with the mean number of worms recovered from the control group. […]

Caenorhabditis elegans = assay: Inhibition of the motility of Caenorhabditis elegans
[2] = test system: ivermectin-resistant Haemonchus contortus; assay: Method I: sheep in vivo, ivermectin-resistant Haemonchus contortus; details: 1.5 mg/kg or 3 mg/kg orally
Description: as §6, §7

[3] = test system: Ivermectin-Resistant Haemonchus contortus, Ostertagia circumcincta, and Trichostrongylus colubriformis; assay: Method I: activity against ivermectin-resistant nematodes in vivo in sheep (all species tested); details: oral, once, doses as low as 1.5 mg/kg
Description: as §6, §7

Haemonchus contortus [4] = assay: Method A: screening of activity against Haemonchus contortus L1 larvae in microtitre plate (development to L3 / motility)
Description: Method A: Screening Method to Test Activity of Compounds Against Haemonchus contortus.

Trichostrongylus axei = assay: Method H: cattle in vivo, Trichostrongylus axei; details: compound alone, dose as low as 3 mg/kg administered orally
Description: as §1, §2

[5] = test system: ivermectin-resistant Trichostrongylus columbriformis; assay: Method I: sheep in vivo, ivermectin-resistant Trichostrongylus colubriformis; details: 1.5 mg/kg or 3 mg/kg orally
Description: as §6, §7

Haemonchus contortus [6] = assay: Method B: activity against Haemonchus contortus in vivo in Mongolian gerbil; parameters: species or system Mongolian gerbil (Meriones unguiculatus); details: po, 72 h, oral gavage, dose 0.1 mg/kg, read-out: reduction in nematode infection
Description: Method B: Screening Method to Test Activity of Compounds Against Haemonchus contortus In Vivo in Mongolian Gerbil (Meriones unguiculatus).
Mongolian gerbils, at least five weeks old, were immunosuppressed and artificially infected with ca. 1000 ensheathed Haemonchus contortus third instar larvae. Six days after infection, the Mongolian gerbils were treated by oral gavage with the test compounds, dissolved in a mixture of 2 parts DMSO and 1 part polyethylene glycol (PEG400), at doses of 100 mg/kg and dissolved in pure polyethylene glycol (PEG400) at doses of 10 and 1 mg/kg. Mongolian gerbils treated only with the placebo (2 parts DMSO and 1 part PEG400 or pure PEG400) served as controls. On day 9 (3 days after treatment) the jirds were euthanized and necropsied for recovery of parasites from the stomach. Efficacy was calculated as the average % reduction in the number of worms in each test group compared with the average number of worms from the control group. […] Compound numbers 1.001, 1.008, 1.012, 1.013 and 1.014 provided at least 95% reduction in nematode in Mongolian gerbils treated by oral gavage with test article at a dose of 100 mg/kg. Compound numbers 1.012, 1.033, 1.064, 2.008, 2.037, 2.038, 2.040, 2.041, 3.001 provided at least 95% reduction in nematode infection at a dose of 10 mg/kg. Compound numbers 1.094, 1.096, 2.048, 3.001, 3.007 and 3.009, provided at least 95% reduction in nematode infection at a dose of 1 mg/kg. Compound numbers 3.006, 3.017 and 3.019 provided at least 95% reduction in nematode infection at a dose of 0.5 mg/kg. Compound numbers 3.005, 3.011 and 3.012 provided at least 95% reduction in nematode infection at a dose of 0.3 mg/kg. The eutomer compound number 3.024 provided at least 95% reduction in nematode infection at a dose of 0.1 mg/kg.

[7] = compound alone, dose as low as 3 mg/kg administered orally
[8] = subcutaneous, 6 mg/kg in combination with ivermectin 50 μg/kg (0.05 mg/kg)

C[C@](C#N)(Cn1cc2ncc(Br)cc2n1)NC(=O)c1ccc(OC(F)(F)F)cc1 [Compound 3.024, (+)-N-[2-(6-Bromo-2H-pyrazolo[4,3-b]pyridin-2-yl)-1-cyano-1-methylethyl]-4-trifluoromethoxybenzamide]
efficacy against Ostertagia ostertagi (Ostertagia ostertagi): > 95% | efficacy against Haemonchus placei (Haemonchus placei; [7]): > 95% | efficacy against Haemonchus placei (ivermectin-resistant strain) (Haemonchus placei; [8]): greater than 95% | efficacy against Ancylostoma tubaeforme (Ancylostoma tubaeforme): > 94% | efficacy against Oesophagostomum radiatum (Oesophagostomum radiatum): > 95% | efficacy against Nematodirus helvetianus (Nematodirus helvetianus; [7]): > 95% | efficacy against Nematodirus helvetianus (Nematodirus helvetianus; [8]): greater than 95% | efficacy against Cooperia punctata (Cooperia punctata): > 95% | efficacy against Toxocara cati (Toxocara cati): > 94% | efficacy against ivermectin-resistant Ostertagia circumcincta [1]: greater than 95% | potency at inhibiting the motility of Caenorhabditis elegans, relative to compound 3.025 (Caenorhabditis elegans): greater than 100 times | efficacy against ivermectin-resistant Haemonchus contortus [2]: greater than 95% | efficacy against all species of the nematodes tested (ivermectin-resistant) [3]: > 95% | inhibition at 0.0025 ppm (Haemonchus contortus [4]; Haemonchus contortus, 96 h, test concentration 0.0025 ppm, 4 days assessment): ≥ 90% | potency at inhibiting the motility of Haemonchus contortus larvae, eutomer relative to distomer (Haemonchus contortus [4]; relative to the distomer (compound 3.025)): greater than 100 times | efficacy against Trichostrongylus axei (Trichostrongylus axei): > 95% | efficacy against ivermectin-resistant Trichostrongylus columbriformis [5]: greater than 95% | inhibition in vivo at 0.1 mg/kg (Haemonchus contortus [6]): ≥ 95%
